Results as given in US20240315937A1, “STABLE EFFICIENT COSMETIC PREPARATIONS” (YISSUM RESEARCH DEVELOPMENT COMPANY OF THE HEBREW …, priority 2021, published 2024).

Experiments:
[1] = Force degradation of 2% CBD cream (CBD assay by HPLC); format: physicochemical; conditions: vs untreated reference
Method: Samples were prepared by the following method: • 1. 200 mg 2% CBD cream vs. Blank (7 mL vials), • 2. Subjected to Oxidation/Base/Acid/Heat/UV conditions (see below), • 3. Mixing with 4 mL DMSO, • 4. Sonication, 30 min, • 5. Shaking, 1 h, • 6. Centrifugation at 4000 rpm, 5 min, • 7. Filtration by 0.22 μm PTFE, • 8. HPLC sample preparation and HPLC protocol as above.
Samples were subjected to the following force degradation conditions and tested for CBD content: • Heat: 200 mg cream was heated at 100° C. (oil bath) for 6 h; • UV: 200 mg cream was exposed to the sun for 3 h; • Acidic conditions: 200 mg cream was treated with 150 μl 9M HCl (aq.) for 1 h and neutralized with 150 μl 9M NaOH; • Basic conditions: […] μl 1M HCl; • Oxidation: 200 mg of cream was treated with 1 ml 30% H2O2 for 2 h; CBD assay % was calculated according to the untreated reference.

[2] = Dissolution of CBD in oil solvents of the creams; format: physicochemical; conditions: CBD 2%; medium-chain triglycerides (MCT) and sesame oil
Method: The main tested parameters included the following: • 1. Reduction of ethanol: Ethanol is generally considered a co-solvent of CBD. The concentration of ethanol was reduced from initial to final preparations, starting from 3.6% and 0.9% to no ethanol in the final preparations, where CBD was dissolved directly in sesame oil (see for example CBD #34 in Table 13 below). • 2. Selection of an antioxidant: The selected antioxidants were BHT and propyl gallate, in various combinations and proportions. […] Due to this property, the final preparations contained 0.05% BHT (see Table 13, CBD #34). • 3. Selection of an oil: Oil is a known solvent for CBD. Various oils were tested as optional solvents in the cosmetic creams of the invention. […] Both MCT and sesame oil have antioxidants properties (see Table 13, CBD #34).

C=C(C)[C@@H]1CCC(C)=C[C@H]1c1c(O)cc(CCCCC)cc1O [CBD, cannabidiol]
CBD assay ([1]; Acid: 200 mg 2% CBD cream, 150 μl 9M HCl, 1 h): 67.7%
CBD assay ([1]; Base: 200 mg 2% CBD cream, 200 μl 1M NaOH, time point 1 h): 81.9%
CBD assay ([1]; Heat: 200 mg 2% CBD cream at 100° C. (oil bath), 6 h): 87.8%
CBD assay ([1]; Oxidation: 200 mg 2% CBD cream, 1 ml 30% H2O2, 2 h): 63.5%
CBD assay ([1]; UV: 200 mg 2% CBD cream exposed to the sun, 3 h): 98.4%
dissolution of CBD in oil solvent [2]: complete dissolution
